One assay relates to rat ventricular myocytes. The experiment in a line: Contractile function of individual ventricular myocytes (line scan camera edge detection, paced at 0.5 Hz). The conditions noted are these: for activation at 10 µM: Rattus norvegicus, Ventricular myocyte. In kind it is cell-based. Here is the method: Primary cultures of adult rat ventricular myocytes were prepared essentially according to previously described methods (Romano et al., Am. J. Physiol. 257:H1088 (1989)). Two male Sprague-Dawley rats (Charles River, Wilmington, Mass. or Harlan, Indianapolis, Ind.) were decapitated, and the hearts were rapidly excised and constant pressure (70 cm H2) and nonrecirculated) perfused for 10 minutes through the aortas with filtered (0.45 μm membrane filter) perfusing solution (NaCl, 118 mM; glucose, 10 mM; NaHCO3 25 mM; KCl, 4.69 mM; MgSO4 1.18 mM; and KH2 PO4, 1.18 mM; (pH 7.4)), to which […] was added, at 37° C. After equilibration, the hearts were constant pressure perfused with fresh physiological saline ("PS") containing no added Ca^2+ until spontaneous contractions ceased (i.e., ~30 seconds). The hearts were then perfused for 4-10 minutes in a nonrecirculating manner with PS containing 0.73 mg/ml collagenase, 0.16 mg/ml hyaluronidase, 1 mg/ml recrystallized bovine serum albumin ("BSA") and 48.4 μM Ca^2+ at a rate of 3-4 ml/min/heart. Ventricles, free of atria, were removed from the perfusion system, cut into 8 pieces and placed in a 50 ml Erlenmeyer flask with 5 ml of PS containing 0.73 mg/ml collagenase, 0.16 mg/ml hyaluronidase, 2.5 mg/ml BSA, and 50 μM Ca^2+ (incubation solution). The flask was gently shaken (40 cycles/min) in a reciprocating water bath with continuous gassing (95% O2, 5% CO2) for 7 minutes at 37° C. The incubation solution was aspirated and this shaking procedure was repeated with fresh incubation solution 3-5 times depending on the likelihood that the tissue was ready to dissociate. After the final incubation period, the solution was aspirated and replaced with 10 ml of fresh incubation solution. The flask was then shaken rapidly (120 cycles/min) for 10 minutes with gassing to dissociate the myocytes. The flask contents were filtered through a 250 μm nylon mesh into a 50 ml polypropylene centrifuge tube, to which 40 ml of PS containing 5.95 mg/ml BSA and 99.7 μm Ca^2+ (wash solution) was gradually added.
The myocytes were allowed to settle for 15 minutes, and the upper two thirds of the wash solution was aspirated. Upon the addition of 30-35 ml of wash solution, this settling step was repeated. The wash solution was aspirated and the myocyte pellet was resuspended in 10 ml of minimum essential medium ("MEM"). The myocyte suspension was allowed to settle for 5 minutes and then brought to a final volume of 22 ml with MEM. Two milliliters of the myocyte suspension was seeded onto each of 60 mm culture dishes containing 2 ml of MEM.
The contractile function of individual myocytes was assessed by dispersing 50-100 cells in a 506 μl myocyte chamber (11×23×2 mm deep). The chamber (FIG. 1) was continuously suffused (850 μl/min) with fresh suffusion solution ("SS") in mM: 136.4 NaCl, 4.7 KCl, 1.0 CaCl2, 10 hydroxyethylpiperzine-ethanesulfonicacid (HEPES), 1.0 NaHCO3, 1.2 MgSO4, 1.2 KH2 PO4, 10 glucose, 0.6 ascorbate, 1.0 pyruvate) at 20° C. The chamber was mounted on an inverted microscope stage and contained platinum wire electrodes for initiating myocyte contraction at 0.5 Hz (voltage 10% above threshold for 5 msec duration).
The image of the myocyte was projected via an inverted microscope at 300× onto a line scan camera (Fairchild, Model 1600R) containing a linear array (1×3456) of photodiodes. When aligned with the longitudinal axis of the cell the camera detected the movement of the 2 ends of the myocyte upon contraction (shortening and relengthening). […] When the myocyte was transilluminated, both ends of the cell were easily discriminated. Myocyte length and length change with respect to time for a single contraction was measured by determining the pixels in which the appropriate transitions between light and dark occurred. The line scan camera was calibrated with a stage micrometer scaled in 10 μm divisions. The signals from the camera were directed to a Hewlett Packard computer (Model Vectra RS/20C). […]

The test system of assay [1] is ventricular myocyte membrane adenylyl cyclase. The experiment in a line: Adenylyl cyclase activity of ventricular myocyte membranes. The format is biochemical, rat. Here is the method: After a 3-4 hour incubation period, myocytes were harvested by placing the culture dishes on ice; aspirating and discarding the culture medium; scraping the attached cells into 1 ml of ice cold buffer (pH 7.4) containing 10 mM HEPES and 1 mM dithiothreitol (DTT); and transferring the mixture to a 40 ml centrifuge tube. The culture dishes were rinsed twice with buffer, and the rinses were added to the centrifuge tube. The myocytes were centrifuged at 45,000 x g for 45 minutes and the supernatant was discarded. The pellet was resuspended in 40 mM HEPES (pH 7.4) to yield 3.5-4 mg protein/ml and homogenized with a small clearance Dounce tissue grinder (8 strokes). The membranes were centrifugated as described above, resuspended (3-4 mg protein/ml) in 40 mM HEPES (pH 7.4), and assayed for adenylyl cyclase activity immediately or stored at -80° C. and assayed within 10 days.
The assay system used to measure adenylyl cyclase activity minimizes the formation of endogenous adenosine. The assay used was essentially as described by Romano et al. (supra). Myocyte membranes (15-25 μg protein) were incubated in 50 μl of a buffer containing 40 mM HEPES (pH 7.4), 5 mM MgCl2, 1 mM DTT, 5.5 mM KCl, 0.1 mM 2'-deoxy-cAMP (dcAMP), 0.1 mM 2'-deoxy ATP (dATP), 20 mM phosphoenolpyruvate, 2 units pyruvate kinase, 0.25 units adenosine deaminase, 1 mM ascorbic acid, 100 mM NaCl, 0.1 mM ethyleneglycol-bis (β-aminoethylether) N,N,N',N',-tetroaceticacid (EGTA), 10 μM guanosine 5'-triphosphate (GTP), and ~2×10^6 counts/minutes of [α-^32 P]dATP for 20 minutes at 30° C. The reaction was stopped by adding 40 μl of a solution containing 2% sodium dodecyl sulfate (SDS), 45 mM ATP, 1.3 mM cAMP, and [^3 H]dcAMP (~4000 count/min) and by boiling for 2 minutes.

Assay [2] relates to cultured ventricular myocytes. The experiment in a line: cAMP content of cultured ventricular myocytes (125I-cAMP RIA). In kind it is cell-based, rat. The note with it: 1 μM DMPX (FIG. 12). Here is the method:
When myocytes were to be used for biochemical studies, each of the culture dishes was preincubated for 2 hours with 1 ml of MEM containing 33 μg of laminin in a 37° C. incubator gassed with 5% CO2 in room air. The laminin solution was removed prior to myocyte seeding. After seeding, the dishes were incubated for an additional 2 hours. The settling and short term culture procedures were performed to purify the myocytes so that >95% of the myocytes adhering to the dishes were rod shaped.
Cyclic AMP levels were determined in cultures of ventricular myocytes according to the following method. After the 2-hour incubation period, the MEM was aspirated and replaced with 2 ml of fresh MEM. Adenosine agonists, ISO, or adenosine antagonists were added to the medium bathing the cells at the concentrations and times indicated. The experiment was terminated by removing the medium from the dish and adding 200 μl of 1N HCl over the cultured myocyte surface. The dishes were then frozen in liquid N2 and stored at -70° C. or held on ice momentarily until extraction was initiated.
For assay, the contents of the dishes were transferred (using 1 ml of distilled/deionized H2 O) into microcentrifuge tubes. The extracts were heated for 1 hour at 57° C. and sonicated for 10 minutes. The extracts were then centrifugated at 14,000 x g for 15 minutes. The supernatant was removed, evaporated, reconstituted in 500 μl of 50 mM sodium acetate buffer and assayed for cAMP using an ^125 I-cAMP RIA kit (Amersham). The pellet was solubilized with 0.1N NaOH and protein determined. The cAMP values are reported in pmol cAMP/mg protein of the extract pellet (total cell protein). This cAMP assay procedure routinely provided recovery values in excess of 90%.

Where [3] appears, read: Table 6, 10^-5 M SHA-082, 10^-5 M NECA, 10^-4 M adenosine, 2 × 10^-7 M DPCPX, 10^-5 M CGS-15943, mean ± SE, N = 6.

Structures are written as SMILES. Like-named read-outs stand apart in the source and are kept apart here.

Turning to `CCNC(=O)[C@H]1O[C@@H](n2cnc3c(N)ncnc32)[C@H](O)[C@@H]1O` [NECA, N-ethylcarboxamidoadenosine], the activation at 10 µM with rat ventricular myocytes (read-out: increase in DS) is 21%. Also, the activation at 10 µM with rat ventricular myocytes (read-out: increase in LC) is 24%. The activation at 10 µM with rat ventricular myocytes (read-out: increase in TPS) was found to be 20%. Further, the activation at 10 µM with rat ventricular myocytes (read-out: increase in TR) was 28%. In the assay on rat ventricular myocytes (setting [3]), the “+dL/dtmax, maximal rate of shortening” value amounted to 203 ± 9 μm/msec; the “-dL/dtmax, maximal rate of relaxation” value amounted to 149 ± 12 μm/msec; the “DS, duration of shortening” value worked out at 350 ± 15 ms; the “LC, maximum length change (shortening) with contraction” value is given as 21 ± 2 μm. In the assay with rat ventricular myocytes (setting [3]), the “TPS, time-to-peak shortening” value was found to be 140 ± 5 ms and the “TR, time to 75% relaxation” value stood at 340 ± 12 ms. The “contractile responses in the presence of 10 μM CGS-15943” value in the assay on rat ventricular myocytes (agonist at 10 μM) is given as “not observed”. In assay [1] (NECA 0 to 1 mM (FIG. 10)), the “increase in adenylyl cyclase activity” value is “approximately two-fold”. Moreover, in assay [1] (without DPCPX, read-out: EC50 for activation of cyclase), the EC50 was found to be 17 ± 5.7 µM.

As to `C#CCn1c(=O)c2c(ncn2C)n(C)c1=O` [DMPX, 3,7-dimethyl-1-propargylxanthine], the “effect on the increase in cAMP caused by 10 μM CGS-21680” value in assay [2] was “prevented”.

These data come from US5629298A, “Adenosine as a positive inotrop in the compromised heart” (University of Massachusetts Medical Center, priority 1995, dated 1997).
